# From patent US10407381B2 (THE BOARD OF TRUSTEES OF THE UNIVERSITY OF ILLINOIS, priority 2015, dated 2019)
# Like-named read-outs stand apart in the source and are kept apart here.
# Tests used:
# [1] = target: T1, 5-HT2B (Homo sapiens, UniProt P41595); details: background, reported values; cited from earlier work
# Target sequence in this assay (P41595 whole entry, species assumed): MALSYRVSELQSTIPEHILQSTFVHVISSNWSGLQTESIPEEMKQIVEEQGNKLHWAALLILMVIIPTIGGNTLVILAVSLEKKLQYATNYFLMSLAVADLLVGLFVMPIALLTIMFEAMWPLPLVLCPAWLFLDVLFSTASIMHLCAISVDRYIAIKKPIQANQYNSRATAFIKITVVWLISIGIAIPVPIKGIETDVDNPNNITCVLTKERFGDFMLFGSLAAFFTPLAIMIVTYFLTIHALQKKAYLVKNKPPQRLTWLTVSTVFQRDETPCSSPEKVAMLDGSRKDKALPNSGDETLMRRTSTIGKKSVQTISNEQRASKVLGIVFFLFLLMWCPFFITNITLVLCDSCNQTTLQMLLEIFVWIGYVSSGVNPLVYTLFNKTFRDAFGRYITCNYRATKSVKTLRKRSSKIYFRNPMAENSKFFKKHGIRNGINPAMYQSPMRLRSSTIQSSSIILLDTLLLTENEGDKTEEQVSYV
# [2] = target: T2, 5-HT2A (Homo sapiens, UniProt P28223); details: background, cited from earlier work
# Target sequence in this assay (P28223 whole entry, species assumed): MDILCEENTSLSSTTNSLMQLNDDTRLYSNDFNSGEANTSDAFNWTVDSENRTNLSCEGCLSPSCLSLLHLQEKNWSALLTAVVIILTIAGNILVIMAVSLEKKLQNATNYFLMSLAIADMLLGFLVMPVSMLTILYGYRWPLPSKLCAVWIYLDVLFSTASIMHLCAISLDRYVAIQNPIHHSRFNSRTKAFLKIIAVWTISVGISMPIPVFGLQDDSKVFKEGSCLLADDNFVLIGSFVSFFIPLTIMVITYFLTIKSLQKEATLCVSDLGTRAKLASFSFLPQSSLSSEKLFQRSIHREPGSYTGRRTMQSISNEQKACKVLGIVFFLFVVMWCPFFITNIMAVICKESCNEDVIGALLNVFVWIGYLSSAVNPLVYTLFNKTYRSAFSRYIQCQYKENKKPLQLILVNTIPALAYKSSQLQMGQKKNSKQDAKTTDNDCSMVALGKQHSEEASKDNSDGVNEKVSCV
# [3] = several animal models; cited from earlier work
# [4] = clinical trials, compared to the placebo group; cited from earlier work
# [5] = target: T2, 5-HT2A; test: Calcium flux (FLIPR) assay, human 5-HT2A stably expressed in HEK-293 (Flp-In-293) cells
# Target sequence in this assay (P28223 whole entry): as the sequence (P28223 whole entry, species assumed) above
# [6] = target: T3, human 5-HT2C-INI (Homo sapiens, UniProt P28335); test: Calcium flux (FLIPR) assay, human 5-HT2C-INI stably expressed in HEK-293 (Flp-In-293) cells; details: for Emax, % 5-HT 5-HT2C: normalized to 5-HT
# T3 sequence (P28335 33-458): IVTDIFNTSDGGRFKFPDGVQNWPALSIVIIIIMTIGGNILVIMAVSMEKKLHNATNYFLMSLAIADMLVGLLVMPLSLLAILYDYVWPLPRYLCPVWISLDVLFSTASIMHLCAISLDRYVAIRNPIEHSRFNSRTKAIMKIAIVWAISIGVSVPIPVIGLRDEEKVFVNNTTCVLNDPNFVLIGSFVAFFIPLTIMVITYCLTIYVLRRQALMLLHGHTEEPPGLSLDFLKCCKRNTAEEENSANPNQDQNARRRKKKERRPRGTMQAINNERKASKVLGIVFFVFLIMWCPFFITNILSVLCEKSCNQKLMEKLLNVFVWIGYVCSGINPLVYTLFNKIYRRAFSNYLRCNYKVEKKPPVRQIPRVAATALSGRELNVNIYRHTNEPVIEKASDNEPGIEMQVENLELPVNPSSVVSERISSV
# [7] = target: T4, 5-HT2C receptor (Homo sapiens, UniProt P28335); details: cited from earlier work; for selectivity for 5-HT2C relative to 5-HT2B: 5-HT2C versus 5-HT2B
# T4 sequence (P28335 33-458): T3 sequence (P28335 33-458)
# [8] = 10-60 mg/kg; cited from earlier work
# [9] = system: C57BL/6J mice; test: Amphetamine-stimulated activity test (open field), schizophrenia-like animal model
# [10] = target: T1, 5-HT2B; test: Calcium flux (FLIPR) assay, human 5-HT2B stably expressed in HEK-293 (Flp-In-293) cells; details: human 5-HT2B in HEK-293 cells
# Target sequence in this assay (P41595 whole entry): as the sequence (P41595 whole entry, species assumed) above
# [11] = human 5-HT2C-INI in HEK-293 cells, FLIPR
structure (smiles),measurement,setting,value
c1cc2c3c(c1)[C@H]1CCC[C@H]1N3CCNC2 [WAY-163909],Emax at 5-HT2B,[1],40%
same,agonist activity at 5-HT2A,[2]; reported,no agonist activity
same,preclinical antipsychotic-like activity,[3],good preclinical antipsychotic-like activity
"C[C@H]1CNCCc2ccc(Cl)cc21 [lorcaserin, reference compound]",incidence of cardiac valve disorders,[4],higher incidence of cardiac valve disorders
same,Emax,[5]; read-out: 5-HT2A Emax Std. Error,68%
same,"Emax, % 5-HT 5-HT2C",[6]; [11],(99%) % 5-HT
same,Emax,[6]; read-out: 5-HT2C Emax Std. Error,99%
"Clc1cccc(COc2cncc(N3CCNCC3)n2)c1 [CP-809,101]",Emax at 5-HT2B,[1],57%
same,selectivity for 5-HT2C relative to 5-HT2B,[7],about 600 fold
same,Emax at 5-HT2C,"[7]; background, reported values",93%
Cc1cccc(C2CC2CN)c1 (stereo not drawn),EC50,[1],65 nM
same,selectivity over 5-HT(2A),[7]; 5-HT2C versus 5-HT2A,120 fold
same,selectivity for 5-HT2C relative to 5-HT2B,[7],14 fold
same,EC50,"[7]; background, reported values",4.8 nM
same,antidepressant-like effects,[8],moderate antidepressant-like effects
same,EC50,[2]; reported values,585 nM
"NCC1CC1c1cc(Cl)ccc1OCCF (single isomer, unassigned; (+)) [(+)-Example 19, (+)-(2-(5-Chloro-2-(2-fluoroethoxy)phenyl)cyclopropyl)methanamine]",AMPH-stimulated hyperlocomotion relative to the Veh-AMPH group,"[9]; 10 or 20 mg/kg i.p., 3 mg/kg amphetamine, distance travelled 16-120 min, p-values<0.035",significantly reduced
same,dose dependence of suppression of AMPH hyperactivity,[9]; 10 versus 20 mg/kg i.p.,not differentiated by dose
same,EC50,"[10]; EC50, nM 5-HT2B, NA = no activity at 10 μM",632 nM
same,"Emax, % 5-HT 5-HT2B",[10]; normalized to 5-HT,(31%) % 5-HT
same,EC50,"[5]; EC50, nM 5-HT2A, human 5-HT2A in HEK-293 cells, FLIPR, NA = no activity at 10 μM",1480 nM
same,"Emax, % 5-HT 5-HT2A","[5]; human 5-HT2A in HEK-293 cells, FLIPR, normalized to 5-HT",(35%) % 5-HT
same,EC50,"[6]; EC50, nM 5-HT2C, human 5-HT2C-INI in HEK-293 cells, FLIPR, NA = no activity at 10 μM",32 nM
same,"Emax, % 5-HT 5-HT2C",[6]; [11],(86%) % 5-HT
